Test results from patent US20230382940A1, “ANTIVIRAL COMPOUNDS AND METHODS OF MAKING AND USING THE SAME” (Gilead Sciences, Inc., priority 2022, published 2023).

What was measured:
[1] = system: Human Rhinovirus 16 (HRV16); experiment: H1-HeLa HRV-CTG 384-well assay, HRV16, Example X; format: cell-based; conditions: Rhinovirus A, 96 h; H1-HeLa cells, HRV16 MOI 0.25, 4 days, Celltiter-Glo; read-out: EC50 H1-HeLa_HRV 16_HRV-CTG 384-well Assay (per Ex. X)
Text: (§1) Example X: H1-HeLa HRV-CTG 384-Well Assay
(§2) H1-Hela cell line (ATCC, Manassas, VA, Cat #CRL-1958) was maintained in Dulbecco's […] (DMEM) (Corning, New York, NY, Cat #15-018CM) supplemented with 10% fetal bovine serum (FBS) (Hyclone, Logan, UT, Cat #SH30071-03), and 1× Penicillin-Streptomycin-L-Glutamine (Corning, New York, NY, Cat #30-009-CI). Cells were passaged 2 times per week to maintain sub-confluent densities and were used for experiments at passage 5-30. The Human Rhinovirus 1B (HRV1B) (ATCC, Manassas, VA, Cat #VR-1645), Human Rhinovirus 14 (HRV14) (ATCC, Manassas, VA, Cat #VR-284), and Human Rhinovirus 16 (HRV16) (ATCC, Manassas, VA, Cat #BR-283) was obtained through ATCC. Viral infection was monitored by determining viability of H1-HeLa cells as described below.
(§3) Test molecules are prepared in 100% DMSO in 384-well polypropylene plates (Greiner, Monroe, NC, Cat #784201) with 8 compounds per plate in grouped replicates of 4 at 10 serially diluted concentrations (1:3). The serially diluted compounds were transferred to low dead volume Echo plates (Labcyte, Sunnyvale, CA, Cat #LP-0200).
(§4) The test compounds were spotted to 384-well assay plates (Greiner, Monroe, NC, Cat #781091) at 200 nL per well using an Echo acoustic dispenser (Labcyte, Sunnyvale, CA). H1-HeLa cells were harvested and suspended in DMEM (supplemented with 2% FBS and 1× Penicillin-Streptomycin-L-Glutamine) and seeded to the pre-spotted assay plates at 5,000 cells per well in 30 μL. HRV1B, HRV14, and HRV16 was diluted in DMEM (supplemented with 2% FBS and 1× Penicillin-Streptomycin-L-Glutamine) at 97.1 million Infectious Units (IU) per mL, 151 million IU per mL and 221 million IU per mL respectively. 10 μL of virus per well was added to the assay plates containing cells and compounds, for an MOI of 0.5, 1.0, and 0.25 respectively. The assay plates were incubated for 4 days at 37° C. and 5% CO2. At the end of incubation, Celltiter-Glo (Promega, Madison, WI, Cat #G7573) was prepared. The assay plates and Celltiter-Glo reagent were equilibrated to room temperature for at least 15 minutes. 40 μL per well of Celltiter-Glo reagent was added and the plates were incubated at room temperature for 15 minutes before reading the luminescence signal on an EnVision multimode plate reader (Perkin Elmer, Waltham, MA). Rupintrivir was used as positive control and DMSO was used as negative control. Values were normalized to the positive and negative controls (as 0% and 100% replication, respectively) and data was fitted using non-linear regression analysis by Gilead's dose response tool. The EC50 value for each compound was defined as the concentration reducing viral replication by 50%.

[2] = GI S9 stability, rat, Example Y; format: in vitro ADME; conditions: pooled intestinal S9 fractions; rat intestinal S9, 1.0 mg/mL protein, 2 μM compound, pH 7.4; read-out: GIS9 Rat T½ (per Ex. Y)
Experimental: Example Y: GI S9 Stability Data
Stock solutions of test compounds in dimethyl sulfoxide (DMSO) having a final concentration of 10 mM were prepared and used in all experiments. Sekisui XenoTech (Kansas City, KS) provided pooled intestinal S9 fractions. All other chemicals were purchased from Sigma-Aldrich (St. Louis, MO) or VWR (West Chester, PA). Internal Standard/Quench (IS/Q) used to stop reactions was 100 nM labetalol in (by volume) methanol (10%) and acetonitrile (90%).
Stability in Intestinal S9 Fractions: Duplicate aliquots of test compound or positive control substrate were added to S9 stock diluted with phosphate buffered saline (137 mM NaCl, 2.7 mM KCl, 10 mM phosphate buffer), pH 7.4, to obtain a protein concentration of 1.0 mg/mL. The metabolic reactions were initiated by the addition of the substrates to the S9 reaction mixture to a final concentration of 2 μM. At 0, 10, 20, 30, 60 and 120 min, 25 μL aliquots of the reaction mixture were transferred to plates containing 225 μl of IS/Q solution. After quenching, the plates were centrifuged at 3000×g for 30 minutes. 150 μL aliquots of each supernatant were dried down then reconstituted with 300 μL water. Aliquots (10 μL) of the prepared samples were analyzed on a Thermo Q-Exactive mass spectrometer as described below.
Liquid Chromatography—Mass Spectrometry: Quantification of test compounds and control substrate was performed by analyte/internal standard peak area ratio (PAR) values measured on a Thermo Q-Exactive mass spectrometer coupled to a Dionex UltiMate 3000 HPLC with a Leap Technologies HTC PAL autosampler. The column used for analysis was a Waters Acquity BEH C18 (1.7 μm particle size, 2.1×50 mm). Mobile phase A consisted of 0.1% (v/v) formic acid in water. Mobile phase B consisted of 0.1% (v/v) formic acid in acetonitrile. Elution of analytes was achieved by a series of linear gradients varying the proportions of A and B. The mass spectrometer was calibrated on a weekly basis and mass tolerance of 5 ppm was used.
Metabolic stabilities in S9 fractions were determined by measuring the rates of disappearance of test compound and positive control substrate.
Data (% of substrate remaining) were plotted on a semi-log scale and fitted using an exponential decline model:
Ct=C0×e^−ln2/T1/2×t • Where Ct—% of substrate remaining at time=t; C0—% of substrate remaining at time=0; t—time; T1/2—half-life. • The Half-life (T1/2) is determined by the following equation: […]
Assuming a first-order reaction, the slope (k) is extrapolated from the aforementioned plotted data.

[3] = system: Human Rhinovirus 14 (HRV14); experiment: H1-HeLa HRV-CTG 384-well assay, HRV14, Example X; format: cell-based; conditions: Rhinovirus B, 96 h; H1-HeLa cells, HRV14 MOI 1.0, 4 days, Celltiter-Glo; read-out: EC50 H1-HeLa_HRV 14_HRV-CTG 384-well Assay (per Ex. X)
Text: as §1, §2, §3, §4

[4] = system: Human Rhinovirus 1B (HRV1B); experiment: H1-HeLa HRV-CTG 384-well assay, HRV1B, Example X; format: cell-based; conditions: Rhinovirus A, 96 h; H1-HeLa cells, HRV1B MOI 0.5, 4 days, Celltiter-Glo; read-out: EC50 H1-HeLa_HRV 1B_HRV-CTG 384-well Assay (per Ex. X)
Text: as §1, §2, §3, §4

Row | SMILES | EC50 [1] [µM] | half-life at 2 μM [2] [min] | EC50 [3] [µM] | EC50 [4] [µM]
1 | N#C[C@]1(COC(=O)OC2CCCC2)O[C@@H](c2ccc3c(N)ncnn23)[C@H](O)[C@@H]1O [Compound 1, ((2R,3S,4R,5S)-5-(4-aminopyrrolo[2,1-f][1,2,4]triazin-7-yl)-2-cyano-3,4-dihydroxytetrahydrofuran-2-yl)methyl cyclopentyl carbonate] | 31.2 | 6 | 19.1 | 8.65
2 | CC(C)(C)COC(=O)OC[C@@]1(C#N)O[C@@H](c2ccc3c(N)ncnn23)[C@H](O)[C@@H]1O [Compound 2, ((2R,3S,4R,5S)-5-(4-aminopyrrolo[2,1-f][1,2,4]triazin-7-yl)-2-cyano-3,4-dihydroxytetrahydrofuran-2-yl)methyl neopentyl carbonate] | 9.74 | 6 | 7.66 | 7
3 | CC[C@H](C)OC(=O)OC[C@@]1(C#N)O[C@@H](c2ccc3c(N)ncnn23)[C@H](O)[C@@H]1O [Compound 4, ((2R,3S,4R,5S)-5-(4-aminopyrrolo[2,1-f][1,2,4]triazin-7-yl)-2-cyano-3,4-dihydroxytetrahydrofuran-2-yl)methyl ((S)-sec-butyl) carbonate] | 38.6 | 10 | 22.2 | 11.2
4 | N#C[C@]1(COC(=O)OCCc2ccccc2)O[C@@H](c2ccc3c(N)ncnn23)[C@H](O)[C@@H]1O [Compound 5, ((2R,3S,4R,5S)-5-(4-aminopyrrolo[2,1-f][1,2,4]triazin-7-yl)-2-cyano-3,4-dihydroxytetrahydrofuran-2-yl)methyl phenethyl carbonate] | 11.2 | 4 | 9.75 | 3.35
5 | COC(=O)OC[C@@]1(C#N)O[C@@H](c2ccc3c(N)ncnn23)[C@H](O)[C@@H]1O [Compound 6, ((2R,3S,4R,5S)-5-(4-aminopyrrolo[2,1-f][1,2,4]triazin-7-yl)-2-cyano-3,4-dihydroxytetrahydrofuran-2-yl)methyl methyl carbonate] | 13.7 | 37 | 15.2 | 8.91
6 | CC(C)CCOC(=O)OC[C@@]1(C#N)O[C@@H](c2ccc3c(N)ncnn23)[C@H](O)[C@@H]1O [Compound 7, ((2R,3S,4R,5S)-5-(4-aminopyrrolo[2,1-f][1,2,4]triazin-7-yl)-2-cyano-3,4-dihydroxytetrahydrofuran-2-yl)methyl isopentyl carbonate] | 9.13 | 3 | 7.31 | 2.81
7 | CC(C)COC(=O)OC[C@@]1(C#N)O[C@@H](c2ccc3c(N)ncnn23)[C@H](O)[C@@H]1O [Compound 8, ((2R,3S,4R,5S)-5-(4-aminopyrrolo[2,1-f][1,2,4]triazin-7-yl)-2-cyano-3,4-dihydroxytetrahydrofuran-2-yl)methyl isobutyl carbonate] | 9.82 | 7 | 7.6 | 5.16
8 | CCCOC(=O)OC[C@@]1(C#N)O[C@@H](c2ccc3c(N)ncnn23)[C@H](O)[C@@H]1O [Compound 9, ((2R,3S,4R,5S)-5-(4-aminopyrrolo[2,1-f][1,2,4]triazin-7-yl)-2-cyano-3,4-dihydroxytetrahydrofuran-2-yl)methyl propyl carbonate] | 10.9 | 8 | 14.7 | 7.57
9 | CC[C@@H](C)OC(=O)OC[C@@]1(C#N)O[C@@H](c2ccc3c(N)ncnn23)[C@H](O)[C@@H]1O [Compound 10, ((2R,3S,4R,5S)-5-(4-aminopyrrolo[2,1-f][1,2,4]triazin-7-yl)-2-cyano-3,4-dihydroxytetrahydrofuran-2-yl)methyl ((R)-sec-butyl) carbonate] | 36.7 | 13 | 35.7 | 18.1
